Test results from patent US20260373119A1, “NOVEL COMPOUND, AND COMPOSITION FOR PREVENTING OR TREATING HER2-POSITIVE CANCER, COMPRISING SAME” (EWHA UNIVERSITY - INDUSTRY COLLABORATION FOUNDATION, priority 2022, published 2026).

Columns and labels:
[1] = system: NCI-N87 (HER2-positive gastric cancer cell line); assay: antiproliferative effect, NCI-N87; assay type: cell-based; conditions: 72 hours
Protocol: (§1) The antiproliferative effects were measured after treating Compounds 1 to 22 for 72 hours on HCT15 (HER2-positive colorectal cancer cell line), NCI-N87 (HER2-positive gastric cancer cell line), T47D (HER2-negative breast cancer cell line), and HeLa (HER2-negative cervical cancer cell line). As a result, strong antiproliferative effects were generally observed in the NCI-N87 cell line (Table 2).
(§2) The antiproliferative effects of the candidate compound, resulting from HER2 inhibition, were evaluated. Specifically, to confirm the anticancer effects of the candidate compound, cancer cells were seeded at a density of 10^4 cells/well in a 96-well cell culture plate for 20 hours. The cells were starved in serum-free media for 4 hours, followed by replacement with media containing the compound at specified concentrations. The cells were then incubated for 72 hours under conditions of 5% CO2 at 37 °C. Cell viability was determined by adding 5 μL of EZ-CytoX to each well and measuring absorbance at 450 nm. The measurements were performed using an ELISA Microplate Reader (VersaMax, Molecular Devices).

[2] = system: TZMB-resistant cells; assay: clonal analysis; assay type: cell-based; conditions: 14 days; TZMB 10 or 20 μg/mL, YK1 0.5 or 1 μM
Protocol: To validate the above results, clonal analysis was performed. […] The incubated cells were fixed with 100% methanol for 1 hour and then stained with 200 μL of crystal violet solution per well. After washing the cells with tap water, images were captured using a ChemiDoc bio-image analyzer (Bio-Rad), and quantification was performed with ImageJ software (NIH, Bethesda, MD, USA). All processes following the fixation were conducted at room temperature.

[3] = system: NCI-N87 xenograft; assay: NCI-N87 xenograft, tumor growth; assay type: in vivo, mice; conditions: 4 mg/kg, intravenous, six times at 3-day intervals
Protocol: (§3) Xenograft mice were generated to evaluate the anticancer effects of the candidate compound. NCI-N87 and JIMT-1 cells (5×10^6 cells), dissolved in 100 μL of 1× phosphate-buffered saline (PBS), were subcutaneously injected into the right flanks of 5-week-old female athymic nude mice (Envigo, USA) or 4-week-old female NOD-SCID mice (Koatech, South Korea). When the tumors reached a volume of 90-100 mm^3, the mice were randomized into designated groups. For the NCI-N87 xenograft, intravenous administration was performed six times at 3-day intervals. For the JIMT-1 xenograft, intraperitoneal administration was performed eight times at 3-day intervals. […] Tumor size changes were monitored until the mean tumor size in the control group reached 2,000-2,500 mm^3. On day 28 for the NCI-N87 xenograft and day 46 for the JIMT-1 xenograft, the mice were sacrificed, and tumors were excised to determine relative tumor sizes. Tumor length (L) and width (W) were measured with calipers, and tumor volume was calculated using the formula: […]

[4] = system: Ki-67; assay: JIMT-1 xenograft, Ki-67; assay type: in vivo, mice; conditions: 4 mg/kg, vs TZMB-treated group
Protocol: as §3
For immunohistochemistry (IHC) analysis, tumors from the xenograft models were prepared as paraffin-embedded sections. […] The control group was counterstained with hematoxylin, and the IHC staining was evaluated under an optical microscope at 200× magnification.

[5] = target: MED23 wild-type (FLAG-tagged) (Homo sapiens, UniProt Q9ULK4); assay: LC-MS/MS protein-small molecule interaction, wild-type MED23; assay type: binding; conditions: FLAG pulldown, LC-MS/MS
Protocol: (§4) HEK293 cells were seeded in a […] and incubated until they reached 70-80% confluency. The cells were transfected with p3Xflag-myc-CMV26-MED23^WT and p3Xflag-myc-CMV26-MED23^D400A/H449G plasmids for 24 hours, followed by lysis to obtain protein extracts. To isolate the candidate compound (YK1) bound to MED23, total lysates were incubated with YK1 for 4 hours and subsequently subjected to pulldown using FLAG-agarose beads (Sigma Aldrich, USA). The precipitated beads were washed at least three times to completely remove unbound compounds. To separate the candidate compound from the precipitated MED23, 50 μL of the sample was extracted with 1 mL of acetonitrile and centrifuged at 13,000 rpm at 4 °C for 10 minutes. The supernatant (1,000 μL) from each sample was transferred to a new tube and dried under nitrogen gas at 37 °C. For YK1 analysis, the residue was dissolved in 50 μL of ACN and vortexed for 10 minutes. […] The mixture was then extracted with 450 μL of ACN by ultrasonic treatment and vortex mixing. The candidate compound bound to MED23 was finally analyzed using an Agilent 6460 triple quadrupole mass spectrometer (Agilent Technologies, USA).

[6] = target: ErbB2 (Homo sapiens, UniProt P04626); assay: kinase profiling, ErbB2; assay type: biochemical; conditions: read-out: In vitro kinase inhibitory activity (%)
Protocol: (§5) Kinase inhibitory activity of the candidate compound at 10 μM and 25 μM was assessed using Eurofins Kinase Profiling Services. Inhibitory effects on c-RAF, EGFR, ErbB2, ErbB4, and PI3 kinase were analyzed according to the Kinase Profiler Service Assay protocol.

[7] = system: HER2 and downstream signaling (phosphorylated AKT and MAPK); assay: HER2 expression and downstream signaling, TZMB-sensitive and -resistant cells; assay type: cell-based
Protocol: For western blot analysis, cells were seeded in a 6-well plate and lysed in 1×RIPA lysis buffer (Cell Signaling, USA) containing 1% 0.1 M [COMPOUND LEFT OUT] and 1% 100× protease inhibitor cocktail solution (Genedepot, USA). Total protein levels were standardized using the Pierce™ BCA Protein Assay Kit (Thermo Fisher Scientific, USA) and a microplate reader (Tecan Group Ltd., Switzerland). A total of 20 μg of protein was loaded onto a 10-15% SDS-PAGE acrylamide gel and transferred to a 0.2 μm PVDF membrane (Pall Life Science, USA). The membrane was blocked with 5% skim milk or 5% BSA, and the membrane was cultured with primary antibodies (purchased from Thermo Fisher, Cell Signaling, Santa Cruz, Novus, or MBL) at room temperature for 3 hours or overnight at 4 °C. The blot was washed three times with Tris-buffered saline containing 0.1% Tween20 (1×TBST) and incubated with an HRP-conjugated secondary antibody (GeneTex, USA). Protein bands were detected using ECL solution reagents (GE Healthcare, USA) and the LAS-3000 imaging system (Fuji Photo Film Co., Ltd., Japan), and captured images were analyzed using Multi-Gauge software (Fuji Photo Film Co. Ltd.). The preparation of cell lysates for subsequent analyses was performed using the same method as described for western blot analysis.
The ability of the candidate compound to overcome trastuzumab resistance was evaluated.

[8] = target: MED23391-625 fragment (Homo sapiens, UniProt Q9ULK4); assay: LC-MS/MS protein-small molecule interaction, MED23 fragments; assay type: binding
[9] = target: HER family kinases (EGFR, ErbB2, and ErbB4) or kinases associated with the AKT/MAPK pathway (PI3 kinase and c-RAF); assay: kinase profiling, summary over the panel; assay type: biochemical; conditions: 10 μM and 25 μM
Protocol: as §5

[10] = system: HeLa (HER2-negative cervical cancer cell line); assay: antiproliferative effect, HeLa; assay type: cell-based; conditions: Homo sapiens, 72 hours
Protocol: as §1, §2

[11] = target: T1, MED23^D400A/H449G (Homo sapiens, UniProt Q9ULK4, D400A/H449G); assay: LC-MS/MS protein-small molecule interaction, double mutant; assay type: binding; conditions: FLAG pulldown
T1 construct: FLAG pulldown, LC-MS/MS
Protocol: as §4

Sequence of ErbB2 (P04626 676-1255 limits assumed): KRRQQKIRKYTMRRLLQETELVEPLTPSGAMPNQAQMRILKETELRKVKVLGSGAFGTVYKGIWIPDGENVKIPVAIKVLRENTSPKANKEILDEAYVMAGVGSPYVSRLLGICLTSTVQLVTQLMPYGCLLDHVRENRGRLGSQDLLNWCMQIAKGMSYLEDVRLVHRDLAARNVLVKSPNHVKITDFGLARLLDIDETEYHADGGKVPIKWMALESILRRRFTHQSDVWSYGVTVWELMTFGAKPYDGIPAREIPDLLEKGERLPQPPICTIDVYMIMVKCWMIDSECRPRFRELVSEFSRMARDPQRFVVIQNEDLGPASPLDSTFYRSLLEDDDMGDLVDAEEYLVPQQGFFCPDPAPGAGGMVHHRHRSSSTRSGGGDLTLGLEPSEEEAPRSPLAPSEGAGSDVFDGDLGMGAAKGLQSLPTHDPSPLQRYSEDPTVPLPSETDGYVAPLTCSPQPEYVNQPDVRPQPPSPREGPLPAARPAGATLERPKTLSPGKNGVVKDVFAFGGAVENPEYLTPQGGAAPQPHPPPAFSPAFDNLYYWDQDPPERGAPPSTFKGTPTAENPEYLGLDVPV
Sequence of MED23391-625 fragment (Q9ULK4 391-625): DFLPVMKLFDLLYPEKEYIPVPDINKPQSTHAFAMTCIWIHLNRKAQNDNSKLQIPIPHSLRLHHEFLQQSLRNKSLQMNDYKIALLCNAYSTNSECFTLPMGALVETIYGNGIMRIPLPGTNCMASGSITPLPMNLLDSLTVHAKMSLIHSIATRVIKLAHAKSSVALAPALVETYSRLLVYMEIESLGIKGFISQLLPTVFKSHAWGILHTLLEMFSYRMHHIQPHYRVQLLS
T1 sequence (Q9ULK4 whole entry D400A/H449G): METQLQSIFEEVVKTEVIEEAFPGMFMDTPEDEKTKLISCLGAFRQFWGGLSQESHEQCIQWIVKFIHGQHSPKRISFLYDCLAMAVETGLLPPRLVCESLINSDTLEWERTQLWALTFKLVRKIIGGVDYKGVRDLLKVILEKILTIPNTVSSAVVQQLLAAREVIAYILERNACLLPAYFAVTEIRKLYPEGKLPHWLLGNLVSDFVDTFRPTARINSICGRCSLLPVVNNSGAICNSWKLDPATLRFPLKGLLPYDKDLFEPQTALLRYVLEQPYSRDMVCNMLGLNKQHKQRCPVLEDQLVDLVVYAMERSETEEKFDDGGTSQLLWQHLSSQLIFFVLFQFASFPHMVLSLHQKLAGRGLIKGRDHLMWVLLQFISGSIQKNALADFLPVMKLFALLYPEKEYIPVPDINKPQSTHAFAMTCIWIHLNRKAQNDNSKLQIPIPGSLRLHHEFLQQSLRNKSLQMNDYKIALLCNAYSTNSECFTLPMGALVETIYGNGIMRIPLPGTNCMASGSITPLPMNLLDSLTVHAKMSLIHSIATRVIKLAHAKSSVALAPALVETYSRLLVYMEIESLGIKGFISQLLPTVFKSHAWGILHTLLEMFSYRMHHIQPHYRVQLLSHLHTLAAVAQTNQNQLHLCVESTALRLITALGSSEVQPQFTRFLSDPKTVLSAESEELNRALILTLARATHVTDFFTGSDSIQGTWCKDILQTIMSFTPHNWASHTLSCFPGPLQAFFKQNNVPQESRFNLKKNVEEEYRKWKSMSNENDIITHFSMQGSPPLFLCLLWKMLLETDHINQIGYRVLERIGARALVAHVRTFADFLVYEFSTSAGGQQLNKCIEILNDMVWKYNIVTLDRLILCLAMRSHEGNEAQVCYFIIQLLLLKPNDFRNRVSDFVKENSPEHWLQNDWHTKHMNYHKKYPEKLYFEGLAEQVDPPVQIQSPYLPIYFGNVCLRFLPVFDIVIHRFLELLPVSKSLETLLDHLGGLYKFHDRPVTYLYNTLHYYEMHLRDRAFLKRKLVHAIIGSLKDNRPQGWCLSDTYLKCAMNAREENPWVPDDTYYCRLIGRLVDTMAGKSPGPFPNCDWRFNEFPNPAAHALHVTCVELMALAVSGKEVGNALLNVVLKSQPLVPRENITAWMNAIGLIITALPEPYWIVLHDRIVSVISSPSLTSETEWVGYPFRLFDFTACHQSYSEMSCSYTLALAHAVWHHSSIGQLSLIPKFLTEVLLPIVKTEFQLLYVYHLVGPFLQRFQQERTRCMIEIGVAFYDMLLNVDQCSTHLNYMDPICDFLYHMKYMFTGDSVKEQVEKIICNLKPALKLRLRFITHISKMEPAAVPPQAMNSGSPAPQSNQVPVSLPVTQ
Sequence of MED23 wild-type (FLAG-tagged) (Q9ULK4 whole entry): as the sequence (Q9ULK4 whole entry D400A/H449G) above, with A400D, G449H counted along it

IC50 ([1]; Homo sapiens, NCI-N87, HER2-positive): 1.56 ± 0.14 µM
binding to wild-type MED23 [5]: able to bind to wild-type MED23
inhibition at 10 µM ([6]; ErbB2, 10 μM): 2%
inhibition at 25 µM ([6]; ErbB2, 25 μM): 0%
kinase inhibitory activity in words [9]: no significant inhibitory activity
IC50 [10]: 16.92 ± 0.1 µM
SMILES: CC(=O)N1N=C(c2cccc(O)c2)CC1c1ccc(Cl)cc1 (stereo not shown) [Compound 15, 1-[5-(4-Chlorophenyl)-3-(3-hydroxyphenyl)-4,5-dihydropyrazol-1-yl]-ethanone]
growth of NCI-N87 cells [1]: significantly inhibited the growth of NCI-N87 cells
effect against TZMB resistance in clonal analysis [2]: effective against TZMB resistance
tumor volume / growth [3]: tumor volume was significantly reduced, and tumor growth was delayed
proliferation marker Ki-67 [4]: significantly reduced in the candidate compound-treated group compared to the TZMB-treated group
HER2 expression and downstream signaling [7]: significantly downregulated HER2 expression and downstream signaling, including phosphorylated AKT and MAPK
interaction with MED23 fragments [8]: specifically interacted with the MED23391-625 fragment
binding to double mutant MED23 [11]: unable to bind to the double mutant MED23^D400A/H449G
